Reference: US10562861B2, “Carboxylic acid compounds” (Sumitomo Dainippon Pharma Co., Ltd., priority 2012, dated 2020)

Legend:
[1] = system: Renca mouse tumour cells; experiment: Tumour growth studies in Renca, a murine syngeneic renal carcinoma tumour model; assay type: in vivo; conditions: Balb/C mice, Renca s.c., vs 0.5% methylcellulose
Experimental: Experiments were conducted on female mice (Balb/C genotype, at least 5 weeks old). Renca mouse tumour cells (Cancer Chemother Pharmacol. 1995; 36 (1): 7-12) were kindly provided by Dr. T. Fujioka at Department of Urology, Iwate Medical University School of Medicine. Renca mouse tumour cells (5×10^4) were implanted subcutaneously in the flank of mice on day 0. Mice were treated with either drug vehicle (0.5% methylcellulose), the compound of Example 3 (0.3 mg/kg once a week) or the compound of Example 4 (3 mg/kg once a week) administered orally (p. o.) on days 1, 8, and 15. Tumour volumes were assessed at least twice weekly by bilateral vernier caliper measurements.
Tumour growth inhibition from the start of treatment was assessed by comparison of the differences in tumour growth rate between control and the compound of Example 3 treated groups, as shown in FIG. 9.
Tumour growth inhibition from the start of treatment was assessed by comparison of the differences in tumour growth rate between control and the compound of the Example 4 treated groups, as shown in FIG. 10.

[2] = system: CT26 mouse tumour cells; experiment: Survival studies in CT26, a murine syngeneic colon carcinoma tumour model; assay type: in vivo; conditions: Balb/C mice, CT26 s.c., vs control or RT
Experimental: Experiments were conducted on female mice (Balb/C genotype, at least 5 weeks old). CT26 mouse tumour cells (CRL-2638) were purchased from ATCC. CT26 mouse tumour cells (1×10^6) were implanted subcutaneously in the flank of mice on day 0. Mice in radiotherapy alone (RT) group and combination group were anesthetized and received radiation therapy (2 Gy) at days 7, 8, 9, 10, and 11. Mice in combination group were also treated with a compound of Example 3 (30 mg/kg once a week) administered orally (p.o.) or Example 4 (5 mg/kg once a week) administered intravenously (i. v.) on days 7, 14, 22, and 27. Tumour volumes were assessed at least twice weekly by bilateral vernier caliper measurements. Survival period was determined by the time taken for tumours to reach 4 times the volume at the time of treatment.

SMILES | Tumour growth inhibition ([1]; 0.3 mg/kg once a week p.o. on days 1, 8, 15, FIG. 9) | Survival period (time for tumours to reach 4 times the volume at treatment) ([2]; RT 2 Gy days 7-11 plus 30 mg/kg once a week p.o., FIG. 12) | Tumour growth inhibition ([1]; 3 mg/kg once a week p.o. on days 1, 8, 15, FIG. 10) | Survival period (time for tumours to reach 4 times the volume at treatment) ([2]; RT 2 Gy days 7-11 plus 5 mg/kg once a week i.v., FIG. 13)
CCC[C@@H](CCO)Nc1nc(N)nc(C)c1Cc1ccc(CN(CC(=O)O)CC(F)F)cc1OC [Example 3, (S)-2-((4-((2-amino-4-(1-hydroxyhexan-3-ylamino)-6-methylpyrimidin-5-yl)methyl)-3-methoxybenzyl)(2,2-difluoroethyl)amino)acetic acid] | inhibited tumour growth | survived significantly longer |  | 
CCC[C@@H](CCO)Nc1nc(N)nc(C)c1Cc1ccc(CN(CC(=O)O)CC(F)(F)F)cc1OC [Example 4, (S)-2-((4-((2-amino-4-(1-hydroxyhexan-3-ylamino)-6-methylpyrimidin-5-yl)methyl)-3-methoxybenzyl)(2,2,2-trifluoroethyl)amino)acetic acid] |  |  | inhibited tumour growth | survived significantly longer
